# Source: patent US20040039014A1, “Methods and compounds for treating depression and other disorders” (NPS Pharmaceuticals, Inc., priority 1998, published 2004)
# Where a name gives a salt, the structure may show the parent alone. Read-outs that look alike come from different tables or passages of the source.
# Legend:
# [1] = target: T1, serotonin transporter site (Rattus norvegicus, UniProt P31652); test: Serotonin reuptake inhibition assay ([3H]citalopram binding, rat forebrain membranes); conditions: Table I; for Ki: read-out: 5-HT Uptake Ki; for inhibition at 0.1 µM: @ 100 nM (top number); for inhibition at 0.1 µM / inhibition at 10 µM: read-out: 5-HT Uptake mean % inhibition; for inhibition at 10 µM: @ 10.0 μM (bottom number)
# T1 construct: tissue NovaScreen (performed the assay); host or cells: rat forebrain membranes
# Procedure: (§1) Monoamine Transporter Minding Assays
# (§2) Monoamine transporter binding assays (reuptake inhibition assays) were performed by NovaScreen using standard radioligand binding assays. The transporter binding assays are described briefly below:
# Serotonin Reuptake Inhibition Assay
# Rat forebrain membranes were incubated with 0.7 nM [^3H] citalopram, N-methyl, (70-87 Ci/mmol)in 50 mM Tris-HCl (pH 7.4), 120 mM NaCl, and 5 mM KCl at 25° C. for 60 minutes. […] Reactions were terminated by rapid vacuum filtration onto glass fiber filters.
# [2] = target: T2, dopamine transporter site (Cavia porcellus, UniProt H0WCX4); test: Dopamine reuptake inhibition assay ([3H]WIN 35428 binding, guinea pig striatal membranes); conditions: for Ki: read-out: DA Uptake Ki; for inhibition at 0.1 µM / inhibition at 10 µM: read-out: DA Uptake mean % inhibition
# T2 construct: tissue NovaScreen (performed the assay); host or cells: guinea pig striatal membranes
# Procedure: as §1, §2
# Dopamine Reuptake Inhibition Assay:
# Reactions were terminated by rapid vacuum filtration onto glass fiber filters. Bound radioactivity was determined using liquid scintillation spectrometry and experimental values were compared to control values to determine binding to the dopamine transporter site based on Madras, et al., Molec.
# NMDA receptor = target: T3, NMDA receptor; test: [3H]MK-801 binding assay (rat cortex synaptic plasma membranes); conditions: read-out: [3H]MK-801 data IC50, Table I
# T3 construct: rat cortex membranes
# Procedure: Synaptic plasma membranes (SPMs) from rat cortex were prepared as follows. Isolated cerebral cortices from male and female rats were purchased from Pel-Freez (Rogers, Ariz.) in bulk, and stored at −80° C. The cortices from 25 rats were thawed and pooled. […] The resulting homogenates were centrifuged for 10 min at 1,000×g in a T865 rotor, UltraPro80 Sorvall Centrifuge. The supernatant was removed and subsequently centrifuged at 30,000×g for 30 min. […] Membranes were washed by re-suspension in 500 ml of 5 mM K-EDTA (pH 7.0), incubated at 32° C. for 30 min with stirring, and centrifuged at 100,000×g for 30 min. The final pellet was resuspended in 60 ml of […] K-EDTA (pH 7.0) and stored in aliquots at −80° C. The extensive washing procedure utilized in this assay was designed to minimize the concentrations of glutamate and glycine (co-agonists at the NMDA receptor-ionophore complex) present in the membrane preparation.
# On the day of assay, aliquots of SPM were thawed and resuspended in 75 vols of 5 mM K-EDTA, pH 7.0. SPM were centrifuged at 100,000×g for 30 min at 4° C.
# The SPM pellet was resuspended in assay buffer (30 mM EPPS, 1 mM K-EDTA, pH 7.0) by polytron. […] Binding was started by the addition of the tissue homogenate. The assay was terminated by the addition of 4 ml ice-cold buffer, followed by filtration over glass-fiber filters (Schleicher & Schuell No. 30) on a Millipore 12-well filtration manifold. Filters were washed with another 3 ×4 ml ice-cold buffer (pH 7.0). Radioactivity on the filters was measured using Fisherbrand Scinti-Safe scintillation cocktail. Samples were shaken for 45-60 min on a shaker platform to solubilize the radioactivity. Counting for ^3H was performed in a Beckman 6000IC LS Scintillation Counter for 4 min per sample.
# [3] = target: T4, norepinephrine transporter site (Rattus norvegicus, UniProt Q63380); test: Norepinephrine reuptake inhibition assay ([3H]nisoxetine binding, rat forebrain membranes); conditions: for Ki: read-out: NE Uptake Ki; for inhibition at 0.1 µM / inhibition at 10 µM: read-out: NE Uptake mean % inhibition
# T4 construct: tissue NovaScreen (performed the assay); host or cells: rat forebrain membranes
# Procedure: as §1, §2
# Norepinephrine Reuptake Inhibition Assay
# Reactions were terminated by rapid vacuum filtration onto glass fiber filters.
# [4] = @ 10.0 μM (bottom number), Table I
# T4 sequence (Q63380 1-617): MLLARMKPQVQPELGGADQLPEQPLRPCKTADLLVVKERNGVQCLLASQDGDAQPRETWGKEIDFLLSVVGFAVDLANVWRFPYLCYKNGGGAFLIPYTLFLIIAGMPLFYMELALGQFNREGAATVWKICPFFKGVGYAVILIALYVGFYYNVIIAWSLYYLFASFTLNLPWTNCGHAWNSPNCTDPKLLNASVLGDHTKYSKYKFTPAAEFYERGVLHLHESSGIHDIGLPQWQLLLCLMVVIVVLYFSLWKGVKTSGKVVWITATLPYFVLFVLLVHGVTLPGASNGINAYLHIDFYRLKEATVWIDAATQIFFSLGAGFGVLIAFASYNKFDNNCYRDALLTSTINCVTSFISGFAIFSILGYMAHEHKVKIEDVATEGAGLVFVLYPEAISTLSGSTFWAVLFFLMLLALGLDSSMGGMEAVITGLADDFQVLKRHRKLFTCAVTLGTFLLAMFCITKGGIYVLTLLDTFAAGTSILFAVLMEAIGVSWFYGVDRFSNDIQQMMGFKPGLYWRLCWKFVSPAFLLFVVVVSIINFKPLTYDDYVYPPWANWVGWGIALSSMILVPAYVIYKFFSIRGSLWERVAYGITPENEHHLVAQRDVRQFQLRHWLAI
# T1 sequence (P31652 whole entry): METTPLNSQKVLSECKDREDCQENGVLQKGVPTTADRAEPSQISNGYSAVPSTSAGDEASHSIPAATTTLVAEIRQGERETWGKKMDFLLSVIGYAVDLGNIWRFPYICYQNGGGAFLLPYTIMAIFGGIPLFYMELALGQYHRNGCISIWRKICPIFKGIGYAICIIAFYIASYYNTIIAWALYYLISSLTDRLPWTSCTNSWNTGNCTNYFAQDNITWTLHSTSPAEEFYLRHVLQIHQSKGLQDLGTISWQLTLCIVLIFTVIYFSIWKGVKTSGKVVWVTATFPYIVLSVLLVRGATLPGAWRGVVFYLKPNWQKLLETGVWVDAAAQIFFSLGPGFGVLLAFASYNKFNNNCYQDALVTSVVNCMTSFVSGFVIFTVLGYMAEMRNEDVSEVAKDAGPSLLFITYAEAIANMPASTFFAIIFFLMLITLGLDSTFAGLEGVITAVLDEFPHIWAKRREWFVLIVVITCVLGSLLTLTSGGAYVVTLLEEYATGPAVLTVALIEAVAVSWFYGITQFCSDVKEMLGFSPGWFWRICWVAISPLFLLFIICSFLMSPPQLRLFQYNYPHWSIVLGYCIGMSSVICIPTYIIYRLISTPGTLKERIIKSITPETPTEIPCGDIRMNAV
# T2 sequence (H0WCX4 1-619): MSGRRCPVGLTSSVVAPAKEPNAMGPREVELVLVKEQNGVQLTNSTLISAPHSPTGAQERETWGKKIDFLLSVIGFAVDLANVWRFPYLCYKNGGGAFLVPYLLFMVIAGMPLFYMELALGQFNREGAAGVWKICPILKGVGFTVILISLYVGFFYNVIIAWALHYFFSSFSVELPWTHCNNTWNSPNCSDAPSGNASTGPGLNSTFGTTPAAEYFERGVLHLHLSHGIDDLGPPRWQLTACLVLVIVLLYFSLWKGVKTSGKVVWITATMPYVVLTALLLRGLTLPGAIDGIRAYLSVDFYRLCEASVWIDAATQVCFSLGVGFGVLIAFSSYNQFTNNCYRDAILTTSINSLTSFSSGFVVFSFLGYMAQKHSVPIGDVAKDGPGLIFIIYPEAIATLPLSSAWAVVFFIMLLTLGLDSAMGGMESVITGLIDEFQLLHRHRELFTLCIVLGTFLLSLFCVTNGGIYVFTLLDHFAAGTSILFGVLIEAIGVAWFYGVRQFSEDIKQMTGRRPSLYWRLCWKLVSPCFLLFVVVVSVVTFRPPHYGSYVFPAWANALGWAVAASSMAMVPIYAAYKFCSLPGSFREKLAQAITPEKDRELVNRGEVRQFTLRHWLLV
smiles,measurement,setting,value
NCCC(Oc1ccccc1)c1cccc(F)c1 (centres unmarked) [Compound 118],Ki,[1],131 nM
same,Ki,[2]; Table I,4100 nM
same,IC50,NMDA receptor,240 nM
N[C@@H]1CCCC1C(c1cccc(F)c1)c1cccc(F)c1 (some centres unmarked) [Compound 64],Ki,[3]; Table I,508 nM
same,Ki,[1],252 nM
same,Ki,[2]; Table I,119 nM
same,IC50,NMDA receptor,851 nM
NCCC(Oc1cccc(F)c1)c1cccc(Cl)c1 (centres unmarked) [Compound 150],IC50,NMDA receptor,351 nM
Cc1ccc(F)cc1C(CCN)c1cc(F)ccc1C [Compound 58],inhibition at 0.1 µM,"[3]; @ 100 nM (top number), Table I",1.3%
same,inhibition at 10 µM,[3]; [4],66.6%
same,inhibition at 0.1 µM,[1],27.2%
same,inhibition at 10 µM,[1],95.2%
same,inhibition at 0.1 µM,"[2]; @ 100 nM (top number), Table I",0%
same,inhibition at 10 µM,[2]; [4],45.2%
same,IC50,NMDA receptor,203 nM
"NCCC(Oc1cccc(F)c1)c1cccc(F)c1 (centres unmarked) [Compound 119, 3-(3-Fluorophenoxy)-3-(3-fluorophenyl)-1-propylamine]",inhibition at 0.1 µM,[1],0.6%
same,inhibition at 10 µM,[1],3.1%
NCCC1c2ccccc2Oc2ccccc21 [Compound 182],IC50,NMDA receptor,7050 nM
NCCC(Oc1ccccc1F)c1cccc(F)c1 (centres unmarked) [Compound 122],Ki,[3]; Table I,103 nM
same,Ki,[1],62 nM
same,Ki,[2]; Table I,2800 nM
same,IC50,NMDA receptor,342 nM
NCCC1c2ccccc2CCc2c(F)cccc21 (centres unmarked) [Compound 196],IC50,NMDA receptor,2240 nM
NCCC1c2ccccc2C=Cc2ccccc21 [Compound 184],IC50,NMDA receptor,1510 nM
CNCCC(c1ccccc1)c1cccc(F)c1 (centres unmarked) [Compound 108],IC50,NMDA receptor,942 nM
"NCCC1c2ccccc2CCc2ccccc21 [Compound 156, 5-(2-Aminoethyl)-5H-10,11-dihydrodibenzo [a, d] cycloheptene hydrochloride]",Ki,[3]; Table I,570 nM
same,Ki,[1],1200 nM
same,Ki,[2]; Table I,> 10000 nM
same,IC50,NMDA receptor,90 nM
NCCC(Oc1cccc(Cl)c1)c1cccc(F)c1 (centres unmarked) [Compound 120],IC50,NMDA receptor,74 nM
NCCC1c2cc(F)ccc2CCc2ccc(F)cc21 [Compound 195],IC50,NMDA receptor,29 nM
CNCCC(Oc1cccc(F)c1)c1cccc(F)c1 (centres unmarked) [Compound 145],inhibition at 0.1 µM,"[3]; @ 100 nM (top number), Table I",16.6%
same,inhibition at 10 µM,[3]; [4],99.4%
same,inhibition at 0.1 µM,[1],3.5%
same,inhibition at 10 µM,[1],81.1%
same,inhibition at 0.1 µM,"[2]; @ 100 nM (top number), Table I",0%
same,inhibition at 10 µM,[2]; [4],87.4%
same,IC50,NMDA receptor,626 nM
NCCC1c2ccccc2CCc2ccc(F)cc21 (centres unmarked) [Compound 197],inhibition at 0.1 µM,"[3]; @ 100 nM (top number), Table I",0%
same,inhibition at 10 µM,[3]; [4],27.5%
same,inhibition at 0.1 µM,[1],9.8%
same,inhibition at 10 µM,[1],58.1%
same,inhibition at 0.1 µM,"[2]; @ 100 nM (top number), Table I",0%
same,inhibition at 10 µM,[2]; [4],83.5%
same,IC50,NMDA receptor,53 nM
NCCC(Oc1ccccc1)c1cccc(Cl)c1 (centres unmarked) [Compound 148],IC50,NMDA receptor,373 nM
Cc1ccccc1C(CCN)c1ccccc1C [Compound 65],Ki,[1],127 nM
same,Ki,[2]; Table I,22000 nM
same,IC50,NMDA receptor,2000 nM
CNC[C@H](C)C(c1cccc(F)c1)c1cccc(F)c1 [Compound 66],inhibition at 0.1 µM,"[3]; @ 100 nM (top number), Table I",4.2%
same,inhibition at 10 µM,[3]; [4],36.5%
same,inhibition at 0.1 µM,[1],6.1%
same,inhibition at 10 µM,[1],67.5%
same,inhibition at 0.1 µM,"[2]; @ 100 nM (top number), Table I",4.4%
same,inhibition at 10 µM,[2]; [4],92.8%
same,IC50,NMDA receptor,1200 nM
NCCC(Oc1cccc(Cl)c1)c1cccc(Cl)c1 (centres unmarked) [Compound 149],IC50,NMDA receptor,150 nM
"Fc1ccc([C@@H]2CCNC[C@H]2COc2ccc3c(c2)OCO3)cc1 [Paroxetine, reference compound]",inhibition at 0.1 µM,[2],< 20%
COc1ccccc1OC(CCN)c1cccc(F)c1 (centres unmarked) [Compound 121],inhibition at 0.1 µM,"[3]; @ 100 nM (top number), Table I",33.6%
same,inhibition at 10 µM,[3]; [4],94.9%
same,inhibition at 0.1 µM,[1],8.5%
same,inhibition at 10 µM,[1],84.3%
same,inhibition at 0.1 µM,"[2]; @ 100 nM (top number), Table I",1.8%
same,inhibition at 10 µM,[2]; [4],91.3%
same,IC50,NMDA receptor,670 nM
CN[C@@H](C)CC(c1cccc(F)c1)c1cccc(F)c1 [Compound 69],IC50,NMDA receptor,366 nM
NCC[C@H](Oc1cccc(F)c1)c1ccccc1 [Compound 186],Ki,[2]; Table I,3100 nM
NCC[C@@H](Oc1cccc(F)c1)c1cccc(F)c1 [Compound 191],Ki,[3]; Table I,638 nM
same,Ki,[1],134 nM
same,Ki,[2]; Table I,1550 nM
same,IC50,NMDA receptor,1300 nM
CCNCCC(c1cccc(F)c1)c1cccc(F)c1 [Compound 59],inhibition at 0.1 µM,"[3]; @ 100 nM (top number), Table I",7.4%
same,inhibition at 10 µM,[3]; [4],50.6%
same,inhibition at 0.1 µM,[1],14.3%
same,inhibition at 10 µM,[1],85.7%
same,inhibition at 0.1 µM,"[2]; @ 100 nM (top number), Table I",1.6%
same,inhibition at 10 µM,[2]; [4],77.6%
same,IC50,NMDA receptor,453 nM
Cc1ccccc1OC(CCN)c1ccccc1 (centres unmarked) [Compound 177],Ki,[3],109 nM
same,Ki,[2]; Table I,> 10000 nM
same,IC50,NMDA receptor,754 nM
COc1ccccc1OC(CCN)c1ccccc1 (centres unmarked) [Compound 178],IC50,NMDA receptor,1250 nM
NCCC1c2ccccc2Sc2ccccc21 [Compound 183],IC50,NMDA receptor,5010 nM
NCCC1c2ccccc2COc2ccccc21 (centres unmarked) [Compound 187],IC50,NMDA receptor,2010 nM
NCCC1c2cc(F)ccc2CCc2c(F)cccc21 (centres unmarked) [Compound 194],IC50,NMDA receptor,371 nM
CNCCC(c1cccc(F)c1)c1cccc(OC)c1 (centres unmarked) [Compound 142],IC50,NMDA receptor,1540 nM
N[C@H]1CCCC1C(c1cccc(F)c1)c1cccc(F)c1 (some centres unmarked) [Compound 63],inhibition at 0.1 µM,"[3]; @ 100 nM (top number), Table I",6.8%
same,inhibition at 10 µM,[3]; [4],76.2%
same,inhibition at 0.1 µM,[1],13.4%
same,inhibition at 10 µM,[1],84.6%
same,inhibition at 0.1 µM,"[2]; @ 100 nM (top number), Table I",64.3%
same,inhibition at 10 µM,[2]; [4],97.8%
same,IC50,NMDA receptor,245 nM
Cc1ccccc1OC(CCN)c1cccc(F)c1 (centres unmarked) [Compound 181],inhibition at 0.1 µM,"[3]; @ 100 nM (top number), Table I",10.7%
same,inhibition at 10 µM,[3]; [4],32%
same,inhibition at 0.1 µM,[1],37.4%
same,inhibition at 10 µM,[1],74.2%
same,inhibition at 0.1 µM,"[2]; @ 100 nM (top number), Table I",0%
same,inhibition at 10 µM,[2]; [4],109%
same,IC50,NMDA receptor,632 nM
CC(CN)C(c1cccc(Cl)c1)c1cccc(Cl)c1 (centres unmarked) [Compound 46],inhibition at 0.1 µM,[3],7.4%
same,inhibition at 10 µM,[3],64%
same,inhibition at 0.1 µM,[1],10.4%
same,inhibition at 10 µM,[1],75.4%
same,inhibition at 0.1 µM,[2],40.2%
same,inhibition at 10 µM,[2],97.1%
same,IC50,NMDA receptor,5200 nM
NCC[C@H](Oc1cccc(F)c1)c1cccc(F)c1 [Compound 192],Ki,[3]; Table I,325 nM
same,Ki,[1],14 nM
same,Ki,[2]; Table I,1300 nM
NCCC1c2cccc(F)c2CCc2c(F)cccc21 [Compound 193],IC50,NMDA receptor,> 1000 nM
"NCC[C@@H](Oc1cccc(F)c1)c1ccccc1 [Compound 185, (R)-3-(3-Fluorophenoxy)-3-phenylpropylamine]",Ki,[1],2400 nM
same,Ki,[2]; Table I,1100 nM
